Measured values as given in patent publication US9924717B2, “Molecules having pesticidal utility, and intermediates, compositions, and processes, related thereto” (Dow AgroSciences LLC, priority 2016, dated 2018).

What was measured:
Type in all cases: in vivo
[1] = system: Cabbage Looper (Trichoplusia ni, TRIPNI) (CL); test: Bioassays on Cabbage Looper (CL), 128-well diet tray assay; conditions: Table ABC rating, Cabbage Looper
Method: (§1) Example A: Bioassays on Beet Armyworm (Spodoptera exigua, LAPHEG) (“BAW”), Corn Earworm (Helicoverpa zea, Helize) (“CEW”), and Cabbage Looper (Trichoplusia ni, TRIPNI) (“CL”)
(§2) Certain molecules disclosed in this document were tested against BAW, CEW, and CL using procedures described in the following examples. In the reporting of the results, the “BAW, CEW, & CL Rating Table” was used (See Table Section).
Bioassays on CL were conducted using a 128-well diet tray assay. one to five second instar CL larvae were placed in each well (3 mL) of the diet tray that had been previously filled with 1 mL of artificial diet to which 50 μg/cm^2 of the test molecule (dissolved in 50 μL of 90:10 acetone-water mixture) had been applied (to each of eight wells) and then allowed to dry. Trays were covered with a clear self-adhesive cover and held at 25° C., 14:10 light-dark for five to seven days. Percent mortality was recorded for the larvae in each well; activity in the eight wells was then averaged. The results are indicated in the table entitled “Table ABC: Biological Results” (See Table Section).
(§3) Bioassays on BAW and CL were conducted according to the procedures outlined in Example A: Bioassays on Beet Armyworm (“BAW”) and Cabbage Looper (“CL”) using the indicated concentrations.

[2] = system: Beet Armyworm (Spodoptera exigua, LAPHEG) (BAW); test: Bioassays on Beet Armyworm (BAW), 128-well diet tray assay; conditions: Table ABC rating, Beet Armyworm
Method: as §1, §2
Bioassays on BAW were conducted using a 128-well diet tray assay. one to five second instar BAW larvae were placed in each well (3 mL) of the diet tray that had been previously filled with 1 mL of artificial diet to which 50 μg/cm^2 of the test molecule (dissolved in 50 μL of 90:10 acetone-water mixture) had been applied (to each of eight wells) and then allowed to dry. Trays were covered with a clear self-adhesive cover and held at 25° C., 14:10 light-dark for five to seven days. Percent mortality was recorded for the larvae in each well; activity in the eight wells was then averaged. The results are indicated in the table entitled “Table ABC: Biological Results” (See Table Section).
as §3

[3] = system: Yellow Fever Mosquito (Aedes aegypti, AEDSAE) (YFM); test: Bioassays on Yellow Fever Mosquito (YFM), 96-well plate larval assay; conditions: Table ABC rating
Method: Example C: Bioassays on Yellow Fever Mosquito (Aedes aegypti, AEDSAE) (“YFM”)
Certain molecules disclosed in this document were tested against YFM using procedures described in the following paragraph. In the reporting of the results, the “GPA & YFM Rating Table” was used (See Table Section).
Master plates containing 400 μg of a molecule dissolved in 100 μL of dimethyl sulfoxide (DMSO) (equivalent to a 4000 ppm solution) are used. A master plate of assembled molecules contains 15 μL per well. To this plate, 135 μL of a 90:10 water:acetone mixture is added to each well. A robot (Biomek® NXP Laboratory Automation Workstation) is programmed to dispense 15 μL aspirations from the master plate into an empty 96-well shallow plate (“daughter” plate). There are 6 reps (“daughter” plates) created per master. The created daughter plates are then immediately infested with YFM larvae.
The day before plates are to be treated, mosquito eggs are placed in Millipore water containing liver powder to begin hatching (4 g. into 400 mL). After the daughter plates are created using the robot, they are infested with 220 μL of the liver powder/larval mosquito mixture (about 1 day-old larvae). After plates are infested with mosquito larvae, a non-evaporative lid is used to cover the plate to reduce drying. Plates are held at room temperature for 3 days prior to grading. After 3 days, each well is observed and scored based on mortality. The results are indicated in the table entitled “Table ABC: Biological Results” (See Table Section).

| Structure (SMILES) | pest or weed control at 50 µg/cm2 [1] | pest or weed control at 50 µg/cm2 [2] | YFM [3] |
| --- | --- | --- | --- |
| Cc1cc(C(/C=C(\F)c2ccc(C(=O)NC(C)C(F)(F)F)c(C(F)(F)F)c2)C(F)(F)F)cc(C)c1Cl (stereo not drawn) [F30, 4-((Z)-3-(4-Chloro-3,5-dimethylphenyl)-1,4,4,4-tetrafluorobut-1-en-1-yl)-2-(trifluoromethyl)-N-(1,1,1-trifluoropropan-2-yl)benzamide] | 50 to 100% | 50 to 100% | A (80-100) |
| C[C@@H](NC(=O)c1ccc(/C(F)=C/C(c2ccc(Cl)c(Cl)c2)C(F)(F)F)cc1C(F)(F)F)C(F)(F)F (stereo partly drawn) [F16, 4-((Z)-3-(3,4-Dichlorophenyl)-1,4,4,4-tetrafluorobut-1-en-1-yl)-2-(trifluoromethyl)-N—((R)-1,1,1-trifluoropropan-2-yl)benzamide] | 50 to 100% | 50 to 100% | A (80-100) |
| CC(NC(=O)c1ccc(/C(F)=C/C(c2ccc(Br)c(Br)c2)C(F)(F)F)cc1C(F)(F)F)C(F)(F)F (stereo not drawn) [F45, 4-((Z)-3-(3,4-Dibromophenyl)-1,4,4,4-tetrafluorobut-1-en-1-yl)-2-(trifluoromethyl)-N-(1,1,1-trifluoropropan-2-yl)benzamide] | 50 to 100% | 50 to 100% | B (More than 0-Less than 80) |
| CC(NC(=O)c1ccc(/C(F)=C/C(c2cc(Br)cc(Br)c2)C(F)(F)F)cc1C(F)(F)F)C(F)(F)F (stereo not drawn) [F28, (Z)-4-(3-(3,5-Dibromophenyl)-1,4,4,4-tetrafluorobut-1-en-1-yl)-2-(trifluoromethyl)-N-(1,1,1-trifluoropropan-2-yl)benzamide] | 50 to 100% | 50 to 100% | A (80-100) |
| Cc1cc(C(/C=C(\F)c2ccc(C(=O)NC3CCC(F)(F)CC3)c(C(F)(F)F)c2)C(F)(F)F)cc(C)c1Cl (stereo not drawn) [F31, (Z)-4-(3-(4-Chloro-3,5-dimethylphenyl)-1,4,4,4-tetrafluorobut-1-en-1-yl)-N-(4,4difluorocyclohexyl)-2-(trifluoromethyl)benzamide] | 50 to 100% | 50 to 100% | A (80-100) |
| O=C(NCc1ccc(Cl)nc1)c1ccc(/C(F)=C/C(c2cc(Cl)c(Cl)c(Cl)c2)C(F)(F)F)cc1C(F)(F)F (stereo not drawn) [F11, (Z)—N-((6-Chloropyridin-3-yl)methyl)-4-(1,4,4,4-tetrafluoro-3-(3,4,5-trichlorophenyl)but-1-en-1-yl)-2-(trifluoromethyl)benzamide] | 50 to 100% | 50 to 100% | A (80-100) |
| O=C(NC1CCC(F)(F)CC1)c1ccc(/C(F)=C/C(c2cc(Br)cc(Br)c2)C(F)(F)F)cc1C(F)(F)F (stereo not drawn) [F40, (Z)-4-(3-(3,5-Dibromophenyl)-1,4,4,4-tetrafluorobut-1-en-1-yl)-N-(4,4-difluorocyclohexyl)-2-(trifluoromethyl)benzamide] | 50 to 100% | 50 to 100% | A (80-100) |
| O=C(NC1CC1)c1ccc(/C(F)=C/C(c2ccc(Br)c(Br)c2)C(F)(F)F)cc1C(F)(F)F (stereo not drawn) [F46, (Z)—N-Cyclopropyl-4-(3-(3,4-dibromophenyl)-1,4,4,4-tetrafluorobut-1-en-1-yl)-2-(trifluoromethyl)benzamide] | 50 to 100% | 50 to 100% | A (80-100) |
| O=C(NC1CC1)c1ccc(/C(F)=C/C(c2cc(Cl)cc(Cl)c2)C(F)(F)F)cc1C(F)(F)F (stereo not drawn) [F23, (Z)—N-Cyclopropyl-4-(3-(3,5-dichlorophenyl)-1,4,4,4-tetrafluorobut-1-en-1-yl)-2-(trifluoromethyl)benzamide] | 50 to 100% | 50 to 100% | A (80-100) |
| O=C(NC1CCC(F)(F)CC1)c1ccc(/C(F)=C/C(c2cc(Br)c(Cl)c(Br)c2)C(F)(F)F)cc1C(F)(F)F (stereo not drawn) [F32, (Z)-4-(3-(3,5-Dibromo-4-chlorophenyl)-1,4,4,4-tetrafluorobut-1-en-1-yl)-N-(4,4-difluorocyclohexyl)-2-(trifluoromethyl)benzamide] | 50 to 100% | 50 to 100% | A (80-100) |
| F/C(=C\C(c1cc(Cl)c(Cl)c(Cl)c1)C(F)(F)F)c1ccc(C(=S)NCC(F)(F)F)c(C(F)(F)F)c1 (stereo not drawn) [F33, (Z)-4-(1,4,4,4-tetrafluoro-3-(3,4,5-trichlorophenyl)but-1-en-1-yl)-N-(2,2,2-trifluoroethyl)-2-(trifluoromethyl)benzothioamide] | 50 to 100% | 50 to 100% | B (More than 0-Less than 80) |
| O=C(NC1CC1)c1ccc(/C(F)=C/C(c2cc(Br)cc(Br)c2)C(F)(F)F)cc1C(F)(F)F (stereo not drawn) [F42, (Z)—N-Cyclopropyl-4-(3-(3,5-dibromophenyl)-1,4,4,4-tetrafluorobut-1-en-1-yl)-2-(trifluoromethyl)benzamide] | 50 to 100% | 50 to 100% | A (80-100) |
| CN(CC(F)(F)F)C(=O)c1ccc(/C(F)=C/C(c2cc(Cl)c(Cl)c(Cl)c2)C(F)(F)F)cc1C(F)(F)F (stereo not drawn) [F29, (Z)—N-Methyl-4-(1,4,4,4-tetrafluoro-3-(3,4,5-trichlorophenyl)but-1-en-1-yl)-N-(2,2,2-trifluoroethyl)-2-(trifluoromethyl)benzamide] | 50 to 100% | 50 to 100% | A (80-100) |
| O=C(NC1CC1)c1ccc(/C(F)=C/C(c2cc(Cl)c(Br)c(Cl)c2)C(F)(F)F)cc1C(F)(F)F (stereo not drawn) [F22, (Z)-4-(3-(4-Bromo-3,5-dichlorophenyl)-1,4,4,4-tetrafluorobut-1-en-1-yl)-N-cyclopropyl-2-(trifluoromethyl)benzamide] | 50 to 100% | 50 to 100% | A (80-100) |
| CC(NC(=O)c1ccc(/C(F)=C/C(c2cc(Cl)cc(Cl)c2)C(F)(F)F)cc1C(F)(F)F)C(F)(F)F (stereo not drawn) [F15, 4-((Z)-3-(3,5-Dichlorophenyl)-1,4,4,4-tetrafluorobut-1-en-1-yl)-2-(trifluoromethyl)-N-(1,1,1-trifluoropropan-2-yl)benzamide] | 50 to 100% | 50 to 100% | A (80-100) |
| O=C(NC1CCC(F)(F)CC1)c1ccc(/C(F)=C/C(c2cc(Cl)cc(Cl)c2)C(F)(F)F)cc1C(F)(F)F (stereo not drawn) [F25, (Z)-4-(3-(3,5-Dichlorophenyl)-1,4,4,4-tetrafluorobut-1-en-1-yl)-N-(4,4-difluorocyclohexyl)-2-(trifluoromethyl)benzamide] | 50 to 100% | 50 to 100% | A (80-100) |
